Among the data in patent US20130197205A1, “CHITOSAN COVALENTLY LINKED WITH SMALL MOLECULE INTEGRIN ANTAGONIST FOR TARGETED DELIVERY” (Hoffmann-La Roche Inc., priority 2012, published 2013) are IC50 values, retold here.

Read-outs that look alike come from different tables or passages of the source.

For the test, the target named is T1, αvβ3 (Homo sapiens, UniProt P05106+P06756, DEL719-788).
T1 construct: purchased R & D 3050-AV
The test can be described thus: Human αVβ3 solid phase assay (fibrinogen binding). The conditions noted are these: αvβ3-coated plates, fibrinogen as ligand. How it is done:
Buffer used was Buffer A: 20 mM Tris, 150 mM NaCl, 1 mM CaCl2, 1 mM MgCl2, pH 7.4. […] After blocking, plates were washed 5 times with 200 uL of Buffer B (Buffer A+1 mM MnCl2). […] Plates were shaken for 2 minutes, and then incubated for 2 hours for 37° C. […] After the addition of 1st antibody and after the addition of 2nd antibody, plates were shaken for 2 minutes and incubated for 60 minutes at 37° C., and then washed 5 times with 200 uL of Buffer B correspondingly. […] Plates were shaken at RT for 5-8 min, and the development of a green color was gradually showing. After being added 100 uL/well Stop Buffer (1.0 M Phosphoric Acid ([…])), plates were read on Envision at Absorbance mode 450 nm.

T1 sequence (P06756 31-992 limits assumed, stated change not applied): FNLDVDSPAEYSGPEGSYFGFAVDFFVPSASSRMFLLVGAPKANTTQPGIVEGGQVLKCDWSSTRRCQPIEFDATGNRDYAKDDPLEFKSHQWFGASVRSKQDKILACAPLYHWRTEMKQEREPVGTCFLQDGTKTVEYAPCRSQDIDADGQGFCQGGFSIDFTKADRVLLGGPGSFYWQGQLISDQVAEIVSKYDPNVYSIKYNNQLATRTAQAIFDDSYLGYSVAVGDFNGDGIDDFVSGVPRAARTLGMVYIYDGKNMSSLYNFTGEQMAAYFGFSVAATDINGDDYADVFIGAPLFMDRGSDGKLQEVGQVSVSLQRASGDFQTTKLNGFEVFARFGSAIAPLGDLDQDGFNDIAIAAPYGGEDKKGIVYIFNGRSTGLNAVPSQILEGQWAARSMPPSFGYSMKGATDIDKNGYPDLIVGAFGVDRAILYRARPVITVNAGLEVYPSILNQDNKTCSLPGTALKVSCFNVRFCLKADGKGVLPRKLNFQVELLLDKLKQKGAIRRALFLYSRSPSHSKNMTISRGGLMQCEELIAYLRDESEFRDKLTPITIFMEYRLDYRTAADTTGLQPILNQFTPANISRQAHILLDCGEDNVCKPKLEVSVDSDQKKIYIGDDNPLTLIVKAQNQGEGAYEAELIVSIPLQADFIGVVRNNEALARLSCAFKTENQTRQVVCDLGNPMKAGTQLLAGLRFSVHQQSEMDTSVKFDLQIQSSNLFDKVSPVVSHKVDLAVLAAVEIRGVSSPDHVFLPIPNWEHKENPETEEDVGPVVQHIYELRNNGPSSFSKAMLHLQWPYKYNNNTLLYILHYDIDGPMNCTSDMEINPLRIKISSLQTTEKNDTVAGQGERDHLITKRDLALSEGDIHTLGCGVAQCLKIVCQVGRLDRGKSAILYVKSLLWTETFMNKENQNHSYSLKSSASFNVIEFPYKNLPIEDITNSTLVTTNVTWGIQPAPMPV
T1 sequence (P05106 27-718 limits assumed, stated change not applied): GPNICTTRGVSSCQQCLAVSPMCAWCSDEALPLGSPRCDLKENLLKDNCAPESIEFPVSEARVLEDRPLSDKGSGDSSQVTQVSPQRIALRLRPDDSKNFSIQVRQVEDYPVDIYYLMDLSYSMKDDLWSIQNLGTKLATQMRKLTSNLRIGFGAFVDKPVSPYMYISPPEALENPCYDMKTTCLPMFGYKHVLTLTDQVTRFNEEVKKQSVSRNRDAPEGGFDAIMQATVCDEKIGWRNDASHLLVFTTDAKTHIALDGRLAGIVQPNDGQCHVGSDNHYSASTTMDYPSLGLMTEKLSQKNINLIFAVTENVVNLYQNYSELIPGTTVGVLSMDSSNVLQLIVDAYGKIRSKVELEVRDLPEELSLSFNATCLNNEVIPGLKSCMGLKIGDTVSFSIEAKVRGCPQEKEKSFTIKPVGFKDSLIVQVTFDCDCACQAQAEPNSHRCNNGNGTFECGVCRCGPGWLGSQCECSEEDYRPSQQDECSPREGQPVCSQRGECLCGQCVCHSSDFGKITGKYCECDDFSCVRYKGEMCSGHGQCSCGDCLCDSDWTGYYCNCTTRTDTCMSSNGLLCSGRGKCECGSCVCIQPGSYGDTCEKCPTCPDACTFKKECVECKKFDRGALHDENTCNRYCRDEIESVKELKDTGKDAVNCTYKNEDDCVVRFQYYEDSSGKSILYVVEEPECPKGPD

As a reminder, the IC50 is the point on the concentration scale where inhibition reaches its midpoint. Turning to `COc1ccc(NC(=O)[C@H](CC(=O)O)NC(=O)CNC(=O)c2cccc(N=C(N)N)c2)cc1` [compound 28], the IC50 is 2 nM (read-out: Binding IC50) and about 2 nM (read-out: IC50 of control compound).
